Measurements: ChEMBL document CHEMBL1201862, “PubChem BioAssay data set” (2004)
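Following 48 hours of exposure in 96-well plates, responses at five concentrations were used to interpolate endpoints linearly. GI50 marks 50% less growth.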 Active and inactive are the calls of the source. Cut-off read from the data, not from the text of the source: active = GI50 up to about 1.1 µM and inactive = higher.

Tests used:
Experiment in all cases: growth of human tumour cells (NCI), 48 h
DLD-1 = test system: DLD-1
LXFL 529 = test system: LXFL 529
M19-MEL = test system: M19-MEL
KM-20L2 = test system: KM-20L2
DMS-273 = test system: DMS-273
DMS-114 = test system: DMS-114
XF498 = test system: XF498
HOP-18 = test system: HOP-18
RXF 631 = test system: RXF 631

CC1=[N+]([O-])c2ccccc2C(=O)C1=O
GI50 (DLD-1): > 100 µM (inactive)
GI50 (LXFL 529): > 100 µM (inactive)
GI50 (M19-MEL): 44.8 µM (inactive)
GI50 (KM-20L2): > 100 µM (inactive)
GI50 (DMS-273): > 100 µM (inactive)
GI50 (DMS-114): > 100 µM (inactive)
GI50 (XF498): > 100 µM (inactive)
GI50 (HOP-18): > 100 µM (inactive)

CN1C(=O)C(C)(C)NS1(=O)=O
GI50 (DLD-1): > 100 µM (inactive)
GI50 (LXFL 529): > 100 µM (inactive)
GI50 (M19-MEL): > 100 µM (inactive)
GI50 (KM-20L2): > 100 µM (inactive)
GI50 (DMS-273): > 100 µM (inactive)
GI50 (DMS-114): > 100 µM (inactive)
GI50 (XF498): > 100 µM (inactive)
GI50 (RXF 631): > 100 µM (inactive)

CCc1cccc(C)c1NC(=O)C(=O)Cc1nc2ccccc2s1
GI50 (DLD-1): > 100 µM (inactive)
GI50 (LXFL 529): > 100 µM (inactive)
GI50 (M19-MEL): > 100 µM (inactive)
GI50 (KM-20L2): > 100 µM (inactive)
GI50 (DMS-273): > 100 µM (inactive)
GI50 (DMS-114): > 100 µM (inactive)
GI50 (RXF 631): > 100 µM (inactive)
GI50 (HOP-18): > 100 µM (inactive)

COc1cccc2c1C(=O)c1c(O)c3c(c(O)c1C2=O)C[C@@](O)(C(=O)CO)C[C@@H]3OC1CC(N)C(OC)C(C)O1 (some centres not stated)
GI50 (DLD-1): 0.0667 µM (active)
GI50 (LXFL 529): 0.0776 µM (active)
GI50 (KM-20L2): 0.148 µM (active)
GI50 (DMS-273): 0.0122 µM (active)
GI50 (XF498): < 0.01 µM (active)
GI50 (RXF 631): 0.0329 µM (active)
GI50 (HOP-18): 0.156 µM (active)

N#C/N=C(/NCc1ccccc1)N(Cc1ccccc1)Cc1ccccc1
GI50 (DLD-1): > 10 µM (inactive)
GI50 (LXFL 529): > 10 µM (inactive)
GI50 (M19-MEL): > 10 µM (inactive)
GI50 (KM-20L2): > 10 µM (inactive)
GI50 (DMS-273): > 10 µM (inactive)
GI50 (DMS-114): > 10 µM (inactive)
GI50 (XF498): > 10 µM (inactive)

O=C(CC1(O)C(=O)Nc2ccccc21)c1cccc(O)c1 (configuration not stated)
GI50 (DLD-1): > 100 µM (inactive)
GI50 (LXFL 529): > 100 µM (inactive)
GI50 (M19-MEL): > 100 µM (inactive)
GI50 (KM-20L2): > 100 µM (inactive)
GI50 (DMS-273): > 100 µM (inactive)
GI50 (DMS-114): > 100 µM (inactive)
GI50 (XF498): 42.5 µM (inactive)
GI50 (RXF 631): > 100 µM (inactive)

C#CC1(O)CCC2C3CCc4cc(Oc5nc(F)nc(-c6c7ccccc7c7sc8ccccc8n67)n5)ccc4C3CC[C@@]21C (some centres not stated)
GI50 (DLD-1): > 100 µM (inactive)
GI50 (LXFL 529): > 100 µM (inactive)
GI50 (M19-MEL): > 100 µM (inactive)
GI50 (KM-20L2): > 100 µM (inactive)
GI50 (DMS-273): 75.5 µM (inactive)
GI50 (XF498): > 100 µM (inactive)

C/N=N/N(C)C(=O)NC
GI50 (DLD-1): > 100 µM (inactive)
GI50 (LXFL 529): > 100 µM (inactive)
GI50 (M19-MEL): > 100 µM (inactive)
GI50 (KM-20L2): > 100 µM (inactive)
GI50 (DMS-114): > 100 µM (inactive)
GI50 (HOP-18): > 100 µM (inactive)

NC(=O)COc1c(Br)cc(Br)cc1Br
GI50 (DLD-1): > 100 µM (inactive)
GI50 (M19-MEL): > 100 µM (inactive)
GI50 (KM-20L2): > 100 µM (inactive)
GI50 (DMS-273): > 100 µM (inactive)
GI50 (DMS-114): > 100 µM (inactive)
GI50 (XF498): > 100 µM (inactive)
GI50 (RXF 631): > 100 µM (inactive)

CN(C)C(=S)/N=c1\ssc(=S)n1Cc1ccccn1
GI50 (DLD-1): 4.45 µM (inactive)
GI50 (LXFL 529): 3.9 µM (inactive)
GI50 (M19-MEL): 2.36 µM (inactive)
GI50 (KM-20L2): 1.94 µM (inactive)
GI50 (DMS-273): 1.64 µM (inactive)
GI50 (XF498): 8.95 µM (inactive)
GI50 (RXF 631): 3.7 µM (inactive)
GI50 (HOP-18): 9.38 µM (inactive)

c1cncc(C2N3CCCCC3[C@@H]3c4[nH]c5ccccc5c4CCN23)c1 (some centres not stated)
GI50 (DLD-1): > 100 µM (inactive)
GI50 (LXFL 529): > 100 µM (inactive)
GI50 (M19-MEL): > 100 µM (inactive)
GI50 (KM-20L2): > 100 µM (inactive)
GI50 (DMS-273): > 100 µM (inactive)
GI50 (XF498): > 100 µM (inactive)
GI50 (RXF 631): > 100 µM (inactive)
GI50 (HOP-18): > 100 µM (inactive)

COC1=CC(=O)C2[C@H]3Cc4ccccc4[C@H]3C2(C)C1=O (some centres not stated)
GI50 (DLD-1): > 100 µM (inactive)
GI50 (LXFL 529): > 100 µM (inactive)
GI50 (M19-MEL): 83.2 µM (inactive)
GI50 (KM-20L2): 77.3 µM (inactive)
GI50 (DMS-273): > 100 µM (inactive)
GI50 (XF498): 51.5 µM (inactive)
GI50 (RXF 631): > 100 µM (inactive)

COC(=O)[C@@H]1C[C@H](c2ccc(OC)c(OC)c2)OC1=O.COC(=O)[C@H]1C[C@H](c2ccc(OC)c(OC)c2)OC1=O
GI50 (DLD-1): > 100 µM (inactive)
GI50 (LXFL 529): > 100 µM (inactive)
GI50 (M19-MEL): > 100 µM (inactive)
GI50 (KM-20L2): > 100 µM (inactive)
GI50 (DMS-273): > 100 µM (inactive)
GI50 (DMS-114): > 100 µM (inactive)
GI50 (XF498): > 100 µM (inactive)
GI50 (RXF 631): > 100 µM (inactive)

COc1cc(C(=O)N[C@H]2CCc3cc(OC)c(OC)c(OC)c3-c3ccc(SC)c(=O)cc32)cc(OC)c1OC
GI50 (DLD-1): 0.00731 µM (active)
GI50 (LXFL 529): 0.00811 µM (active)
GI50 (M19-MEL): 0.0225 µM (active)
GI50 (KM-20L2): 0.00475 µM (active)
GI50 (DMS-273): 0.00298 µM (active)
GI50 (DMS-114): 0.00775 µM (active)
GI50 (XF498): 0.024 µM (active)
GI50 (RXF 631): 0.0338 µM (active)

CC(NC(=O)/C(C#N)=C/c1ccc2[nH]ccc2c1)c1ccccc1 (configuration not stated)
GI50 (DLD-1): 19.1 µM (inactive)
GI50 (LXFL 529): 19.5 µM (inactive)
GI50 (KM-20L2): 18.6 µM (inactive)
GI50 (DMS-273): 23.5 µM (inactive)
GI50 (DMS-114): 22.3 µM (inactive)
GI50 (HOP-18): 24.3 µM (inactive)

CCCOc1ccc(/C=C\c2cc(OC)c(OC)c(OC)c2)cc1
GI50 (DLD-1): 87.7 µM (inactive)
GI50 (LXFL 529): 52.8 µM (inactive)
GI50 (M19-MEL): 67.8 µM (inactive)
GI50 (KM-20L2): 33 µM (inactive)
GI50 (DMS-273): 36.3 µM (inactive)
GI50 (DMS-114): 34.4 µM (inactive)
GI50 (XF498): 62.2 µM (inactive)
GI50 (RXF 631): 37.1 µM (inactive)
GI50 (HOP-18): > 100 µM (inactive)

COC(COC(N)=O)C1=C(N2CC2)C(=O)C(C)=C(N2CC2)C1=O (configuration not stated) [CARBOQUONE]
GI50 (DLD-1): 0.113 µM (active)
GI50 (LXFL 529): 0.196 µM (active)
GI50 (M19-MEL): 0.0968 µM (active)
GI50 (KM-20L2): 0.0608 µM (active)
GI50 (DMS-273): < 0.01 µM (active)
GI50 (DMS-114): 0.063 µM (active)
GI50 (XF498): 0.154 µM (active)
GI50 (HOP-18): 0.199 µM (active)
